Test results reported in ChEMBL document CHEMBL1201862, “PubChem BioAssay data set” (2004).
Values joined by “and” are separate entries in the source; they are usually repeats but may differ in a detail not shown here. Equal values may be shown once.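 Cells were grown in 96-well plates and exposed to each compound for 48 hours at five concentrations; endpoints were interpolated linearly between bracketing concentrations, or set to the highest concentration if not reached. GI50 marks 50% less growth.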 Active and inactive are the calls of the source. No stated cut-off is given here; in the data, active = GI50 up to about 1.1 µM and inactive = higher.

Tests used:
Assay in all cases: growth of human tumour cells (NCI), 48 h
[1] = test system: COLO 205
[2] = test system: HCT-116
[3] = test system: RXF 393
[4] = test system: OVCAR-4
[5] = test system: SNB-19
[6] = test system: A549
[7] = test system: DU-145
[8] = test system: HT-29
[9] = test system: MDA-MB-231
[10] = test system: SF-295
[11] = test system: SK-MEL-28
[12] = test system: Malme-3M
[13] = test system: MDA-N
[14] = test system: M14
[15] = test system: 786-0
[16] = test system: T47D
[17] = test system: HL-60
[18] = test system: MCF7
[19] = test system: TK-10
[20] = test system: SN12C
[21] = test system: BT-549
[22] = test system: EKVX
[23] = test system: OVCAR-5
[24] = test system: CAKI-1
[25] = test system: MDA-MB-435
[26] = test system: LOX IMVI
[27] = test system: HCC 2998
[28] = test system: KM12
[29] = test system: NCI-H226
[30] = test system: MOLT-4
[31] = test system: CCRF-CEM
[32] = test system: OVCAR-3
[33] = test system: NCI/ADR-RES
[34] = test system: IGROV-1
[35] = test system: UACC-62
[36] = test system: SW-620
[37] = test system: HOP-62
[38] = test system: UO-31
[39] = test system: SK-MEL-5
[40] = test system: PC-3
[41] = test system: SK-OV-3
[42] = test system: U-251
[43] = test system: SF-539
[44] = test system: HCT-15
[45] = test system: A498
[46] = test system: SK-MEL-2
[47] = test system: UACC-257
[48] = test system: HOP-92
[49] = test system: OVCAR-8
[50] = test system: ACHN
[51] = test system: NCI-H23
[52] = test system: NCI-H522
[53] = test system: RPMI-8226
[54] = test system: SF-268
[55] = test system: SNB-75
[56] = test system: Hs-578T
[57] = test system: SR
[58] = test system: NCI-H460
[59] = test system: K562

C=CCN1C(=O)/C(=C/c2ccc(C)cc2)N=C1SC1OC(COC(C)=O)C(OC(C)=O)C(OC(C)=O)C1OC(C)=O (stereo not given)
GI50 [1]: 59.4 µM (inactive)
GI50 [2]: 34.1 µM (inactive)
GI50 [3]: 11.6 µM (inactive) and 8.43 µM (inactive)
GI50 [4]: 7.83 µM (inactive)
GI50 [5]: > 100 µM (inactive)
GI50 [6]: > 100 µM (inactive)
GI50 [7]: 33.9 µM (inactive) and > 45.3 µM (inactive)
GI50 [8]: > 100 µM (inactive)
GI50 [9]: 28.7 µM (inactive) and 27.5 µM (inactive)
GI50 [10]: 60.1 µM (inactive)
GI50 [11]: > 100 µM (inactive)
GI50 [12]: 39.2 µM (inactive)
GI50 [13]: > 100 µM (inactive)
GI50 [14]: 68.7 µM (inactive)
GI50 [15]: 3.4 µM (inactive)
GI50 [16]: 14.4 µM (inactive)
GI50 [17]: > 76.4 µM (inactive)
GI50 [18]: 39.4 µM (inactive) and 34.8 µM (inactive)
GI50 [19]: > 100 µM (inactive)
GI50 [20]: > 100 µM (inactive)
GI50 [21]: 25.3 µM (inactive) and 23.3 µM (inactive)
GI50 [22]: 51.8 µM (inactive)
GI50 [23]: 53.2 µM (inactive) and > 82.8 µM (inactive)

COc1cccc(CN(C(=O)/C=C\Sc2ccccc2)C(C)(C)C)c1
GI50 [1]: 63.7 µM (inactive)
GI50 [2]: 33 µM (inactive)
GI50 [24]: > 100 µM (inactive)
GI50 [25]: 86.5 µM (inactive)
GI50 [26]: 32.5 µM (inactive)
GI50 [4]: 96.8 µM (inactive)
GI50 [27]: > 100 µM (inactive)
GI50 [28]: > 100 µM (inactive)
GI50 [29]: > 100 µM (inactive)
GI50 [5]: > 100 µM (inactive)
GI50 [6]: 43.8 µM (inactive)
GI50 [30]: 18.1 µM (inactive)
GI50 [31]: 0.435 µM (active)
GI50 [32]: 52.5 µM (inactive)
GI50 [33]: 58.9 µM (inactive)
GI50 [34]: 57.1 µM (inactive)
GI50 [35]: > 100 µM (inactive)
GI50 [7]: > 100 µM (inactive)
GI50 [8]: 31.1 µM (inactive)
GI50 [36]: > 100 µM (inactive)
GI50 [9]: > 100 µM (inactive)
GI50 [37]: > 100 µM (inactive)
GI50 [10]: > 100 µM (inactive)
GI50 [11]: > 100 µM (inactive)
GI50 [38]: 48.3 µM (inactive)
GI50 [39]: 49 µM (inactive)
GI50 [40]: 33 µM (inactive)
GI50 [41]: > 100 µM (inactive)
GI50 [42]: > 100 µM (inactive)
GI50 [43]: > 100 µM (inactive)
GI50 [13]: 74 µM (inactive)
GI50 [44]: 44.6 µM
GI50 [45]: > 100 µM (inactive)
GI50 [14]: 84.7 µM (inactive)
GI50 [46]: 54.8 µM (inactive)
GI50 [15]: > 100 µM (inactive)
GI50 [16]: 17.6 µM (inactive)
GI50 [17]: 20.5 µM (inactive)
GI50 [18]: 81.3 µM (inactive)
GI50 [47]: 41 µM (inactive)
GI50 [48]: 2.61 µM (inactive)
GI50 [49]: > 100 µM (inactive)
GI50 [19]: > 100 µM (inactive)
GI50 [20]: > 100 µM (inactive)
GI50 [50]: > 100 µM (inactive)
GI50 [21]: 90.2 µM (inactive)
GI50 [51]: > 100 µM (inactive)
GI50 [22]: 90.6 µM (inactive)
GI50 [23]: > 100 µM (inactive)

O=P1(Oc2ccccc2)N(CCCl)CCN1c1ccccc1 (stereo not given)
GI50 [1]: > 100 µM (inactive)
GI50 [52]: > 100 µM (inactive)
GI50 [2]: 75.3 µM (inactive)
GI50 [24]: > 100 µM (inactive)
GI50 [25]: > 100 µM (inactive)
GI50 [3]: 58.5 µM (inactive)
GI50 [26]: > 100 µM (inactive)
GI50 [4]: 23.4 µM (inactive)
GI50 [27]: > 100 µM (inactive)
GI50 [28]: > 100 µM (inactive)
GI50 [29]: > 100 µM (inactive)
GI50 [53]: > 100 µM (inactive)
GI50 [5]: > 100 µM (inactive)
GI50 [6]: > 100 µM (inactive)
GI50 [30]: 61.8 µM (inactive)
GI50 [31]: > 100 µM (inactive)
GI50 [32]: > 100 µM (inactive)
GI50 [33]: 83.6 µM (inactive)
GI50 [34]: 42.7 µM (inactive)
GI50 [54]: > 100 µM (inactive)
GI50 [35]: > 100 µM (inactive)
GI50 [7]: > 100 µM (inactive)
GI50 [8]: > 100 µM (inactive)
GI50 [36]: > 100 µM (inactive)
GI50 [9]: 95.7 µM (inactive)
GI50 [37]: > 100 µM (inactive)
GI50 [10]: > 100 µM (inactive)
GI50 [11]: > 100 µM (inactive)
GI50 [38]: > 100 µM (inactive)
GI50 [39]: 66.5 µM (inactive)
GI50 [55]: 34.8 µM (inactive)
GI50 [12]: > 100 µM (inactive)
GI50 [40]: > 100 µM (inactive)
GI50 [41]: > 100 µM (inactive)
GI50 [42]: > 100 µM (inactive)
GI50 [43]: > 100 µM (inactive)
GI50 [13]: > 100 µM (inactive)
GI50 [56]: > 100 µM (inactive)
GI50 [44]: > 100 µM
GI50 [57]: 79.3 µM (inactive)
GI50 [45]: 55 µM (inactive)
GI50 [14]: > 100 µM (inactive)
GI50 [58]: > 100 µM (inactive)
GI50 [46]: > 100 µM (inactive)
GI50 [15]: > 100 µM (inactive)
GI50 [16]: > 100 µM (inactive)
GI50 [17]: > 100 µM (inactive)
GI50 [18]: 70.1 µM (inactive)
GI50 [47]: 79.6 µM (inactive)
GI50 [48]: > 100 µM (inactive)
GI50 [49]: > 100 µM (inactive)
GI50 [19]: 81.5 µM (inactive)
GI50 [20]: > 100 µM (inactive)
GI50 [59]: > 100 µM (inactive)
GI50 [50]: > 100 µM (inactive)
GI50 [51]: > 100 µM (inactive)
GI50 [22]: 80.4 µM (inactive)
GI50 [23]: > 100 µM (inactive)

Cc1cc(Cc2cc(C)c(NC(=O)C(=O)C3CCC4=C(SC5C=CC=CC5N4)C3=O)c(C(C)C)c2)cc(C(C)C)c1NC(=O)C(=O)C1CCC2=C(SC3C=CC=CC3N2)C1=O (stereo not given)
GI50 [1]: 44.6 µM (inactive)
GI50 [52]: 19.9 µM (inactive)
GI50 [2]: 47 µM (inactive)
GI50 [24]: 53.6 µM (inactive)
GI50 [25]: > 100 µM (inactive)
GI50 [3]: 44 µM (inactive)
GI50 [26]: 96.6 µM (inactive)
GI50 [4]: 33.7 µM (inactive)
GI50 [27]: 30.5 µM (inactive)
GI50 [28]: 43.3 µM (inactive)
GI50 [29]: 31 µM (inactive)
GI50 [53]: 37.4 µM (inactive)
GI50 [6]: 64 µM (inactive)
GI50 [30]: 32.2 µM (inactive)
GI50 [31]: 46.5 µM (inactive)
GI50 [32]: 35 µM (inactive)
GI50 [33]: 35.5 µM (inactive)
GI50 [34]: 34 µM (inactive)
GI50 [54]: 74.8 µM (inactive)
GI50 [35]: 53.1 µM (inactive)
GI50 [7]: > 100 µM (inactive)
GI50 [8]: 58.6 µM (inactive)
GI50 [36]: 38 µM (inactive)
GI50 [9]: 95.9 µM (inactive)
GI50 [37]: 94.4 µM (inactive)
GI50 [10]: 69.7 µM (inactive)
GI50 [11]: > 100 µM (inactive)
GI50 [38]: 41.3 µM (inactive)
GI50 [39]: 35.8 µM (inactive)
GI50 [55]: 94.6 µM (inactive)
GI50 [40]: 25.1 µM (inactive)
GI50 [41]: > 100 µM (inactive)
GI50 [42]: 50.1 µM (inactive)
GI50 [43]: 12.5 µM (inactive)
GI50 [44]: 34.9 µM
GI50 [57]: 60.8 µM (inactive)
GI50 [45]: > 100 µM (inactive)
GI50 [14]: > 100 µM (inactive)
GI50 [58]: 53.1 µM (inactive)
GI50 [46]: 45.5 µM (inactive)
GI50 [15]: > 100 µM (inactive)
GI50 [16]: 29.2 µM (inactive)
GI50 [17]: 40.6 µM (inactive)
GI50 [18]: 62.5 µM (inactive)
GI50 [47]: > 100 µM (inactive)
GI50 [48]: > 100 µM (inactive)
GI50 [49]: 29.7 µM (inactive)
GI50 [19]: > 100 µM (inactive)
GI50 [20]: 84.1 µM (inactive)
GI50 [59]: 55.7 µM (inactive)
GI50 [50]: 62.4 µM (inactive)
GI50 [21]: 38.4 µM (inactive)
GI50 [51]: 41.4 µM (inactive)
GI50 [22]: 52.7 µM (inactive)
GI50 [23]: > 100 µM (inactive)
